Data as given in BindingDB's records for doi:10.1016/j.bmcl.2008.12.079 (Gilead Sciences, 2009).

Target: T1, Gag-Pol polyprotein [1148-1435] (Human immunodeficiency virus 1, UniProt P04585)
T1 construct: 1148-1435
Assay: DNA Strand-Transfer Activity Assay
Conditions: pH 7.3; 22 °C
Protocol: In the strand-transfer assay, the biotinylated donor DNA was bound to streptavidin-coated plates, and integrase was added to each well to allow processing of the donor DNA. Serially diluted compounds and DIG-tagged target DNA were then added to each well, and 3-end joining reaction was allowed to proceed for 30 min. Signal was detected using horseradishperoxidase-conjugated anti-Digoxin antibody through chemiluminescence measurement.

COc1c2c(c(O)c3ncc(Cc4ccc(F)cc4)cc13)C(=O)N(C)C2 [3-[(4-fluorophenyl)methyl]-9-hydroxy-5-methoxy-7-methyl-6H,7H,8H-pyrrolo[3,4-g]quinolin-8-one]
IC50: 100 nM
